This note sets out measurements from ChEMBL document CHEMBL4808236, “New phorbol ester derivatives as potent anti-HIV agents” (Bioorg Med Chem Lett, 2021).

The test system of one series is A549. The series is described as follows: Antiproliferative activity against human A549 cells assessed as reduction in cell viability measured after 72 hrs by SRB assay. The note with it: A549, 72 h. A general note: The SRB assay estimates cell density from bound dye.
A further series has as its system MDA-MB-231. Nature of the series: Antiproliferative activity against human MDA-MB-231 cells assessed as reduction in cell viability measured after 72 hrs by SRB assay. The class given is functional, cell-based. The following applies: MDA-MB-231, 72 h.
For the next series, the system named is KB. Nature of the series: Antiproliferative activity against human KB cells assessed as reduction in cell viability measured after 72 hrs by SRB assay. Format: functional, cell-based.
A short description of series [1]: Antiproliferative activity against human KB-VIN cells assessed as reduction in cell viability after 72 hrs by SRB assay. The class given is functional, cell-based. The note with it: KBVIN.
For a further series, the system named is MCF7. Nature of the series: Antiproliferative activity against human MCF7 cells assessed as reduction in cell viability measured after 72 hrs by SRB assay. The following applies: MCF7, 72 h. The class given is functional, cell-based.
The subject of series [2] is Human immunodeficiency virus 1. The series is described as follows: Antiviral activity against HIV-1 NL4-3 infected in human MT4 cells assessed as reduction in p24 production treated at 48 hrs post-infection and measured on day 4 post-viral infection by ELISA. Format: functional, organism-based. The following applies: Human immunodeficiency virus 1, NL4-3, MT4. On the technique in general: In an ELISA, binding on a coated surface is turned into a signal by an enzyme label.

Another series concerns MT4. Nature of the series: Cytotoxicity against human MT4 cells assessed as reduction in cell viability by CellTiter-Glo luminescence assay. Format: cell-based. (ATP-based viability assays read luminescence as a measure of living cells.)
Series [3] in a line: Selectivity index, ratio of CC75 for cytotoxicity against human MT4 cells to IC50 for antiviral activity against HIV-1 NL4-3 infected in human MT4 cells. The note with it: read-out: Selectivity Index. Format: toxicity, cell-based.
Another series concerns MRC5. Nature of the series: Cytotoxicity against human MRC5 cells assessed as inhibition of cell viability. Format: cell-based.

As to `CC1=C[C@H]2[C@@]3(O)[C@H](C)[C@@H](OC(=O)CCc4ccccc4)[C@]4(OC(=O)CCc5ccccc5)[C@H]([C@@H]3C=C(CO)C[C@]2(O)C1=O)C4(C)C`, the IC50 in the series with A549 is more than 10 µM; with MDA-MB-231, more than 10 µM; in the series on KB, 8.31 µM; in series [1], more than 10 µM; in the series with MCF7, 10.5 µM; in series [2], 0.00049 µM. In addition, the IC50 with MRC5 amounted to 11.4 µM. Moreover, the CC75 in the series on MT4 is more than 5 µM. Moreover, the selectivity ratio in series [3] is more than 10000.

On to `CC/C=C/C/C=C/C/C=C/C/C=C/C/C=C/CCCC(=O)O[C@@H]1[C@@H](C)[C@@]2(O)[C@@H](C=C(CO)C[C@]3(O)C(=O)C(C)=C[C@@H]23)[C@@H]2C(C)(C)[C@]12OC(C)=O`, for which the IC50 in the series with A549 is more than 10 µM; in the series on MDA-MB-231, more than 10 µM; with KB it was more than 10 µM; in series [1] it was more than 10 µM; with MCF7, more than 10 µM; in [2], 0.00046 µM. For the same compound, in the series on MT4, the CC75 was more than 5 µM. The selectivity ratio in series [3] was more than 10000.

As for `CC1=C[C@H]2[C@@]3(O)[C@H](C)[C@@H](OC(=O)/C=C/c4ccccc4)[C@]4(OC(=O)/C=C/c5ccccc5)[C@H]([C@@H]3C=C(CO)C[C@]2(O)C1=O)C4(C)C`, the IC50 in the series on A549 was determined as 4.7 µM; in the series on MDA-MB-231, 8.29 µM; in the series on KB, 6.45 µM; in series [1], 6.82 µM; in the series with MCF7 it was 6.85 µM; in [2], 0.00921 µM. For the same compound, in the series with MRC5, the IC50 was found to be 36.2 µM. Also, the CC75 in the series on MT4 was more than 5 µM. Moreover, the selectivity ratio in [3] was more than 500.

Take `CC/C=C/C/C=C/C/C=C/C/C=C/C/C=C/CCCC(=O)O[C@@H]1[C@@H](C)[C@@]2(O)[C@@H](C=C(CO)C[C@]3(O)C(=O)C(C)=C[C@@H]23)[C@@H]2C(C)(C)[C@]12OC(=O)CCC`: the IC50 in the series on A549 is more than 10 µM; in the series on MDA-MB-231 it was more than 10 µM; with KB, more than 10 µM; in [1] it was more than 10 µM; in the series with MCF7 it was more than 10 µM; in series [2], 0.00227 µM. Also, the CC75 with MT4 was more than 5 µM. Also, the selectivity ratio in series [3] is more than 1500.

Consider `CC(=O)O[C@@]12[C@H](OC(=O)/C=C/c3ccccc3)[C@@H](C)[C@@]3(O)[C@@H](C=C(CO)C[C@]4(O)C(=O)C(C)=C[C@@H]34)[C@@H]1C2(C)C`, for which the IC50 is more than 10 µM in the series with A549; more than 10 µM in the series on MDA-MB-231; more than 10 µM with KB; more than 10 µM in [1]; more than 10 µM in the series with MCF7; 0.0031 µM in [2]. Further, the CC75 in the series with MT4 was more than 5 µM. For the same compound, the selectivity ratio in [3] was more than 1500.

Take `CC(=O)O[C@@]12[C@H](OC(=O)/C=C/c3ccc(Cl)cc3)[C@@H](C)[C@@]3(O)[C@@H](C=C(CO)C[C@]4(O)C(=O)C(C)=C[C@@H]34)[C@@H]1C2(C)C`: the 50% inhibitory concentration (IC50) with A549 was more than 10 µM; with MDA-MB-231 it was more than 10 µM; with KB it was more than 10 µM; in series [1], more than 10 µM; in the series with MCF7 it was more than 10 µM; in series [2], 0.00075 µM. For the same compound, the IC50 in the series on MRC5 worked out at 7.13 µM. In addition, in the series with MT4, the CC75 was more than 5 µM. For the same compound, the selectivity ratio in series [3] was more than 5000.

As to `CC/C=C/C/C=C/C/C=C/C/C=C/C/C=C/CCCC(=O)O[C@]12C([C@@H]3C=C(CO)C[C@]4(O)C(=O)C(C)=C[C@H]4[C@@]3(O)[C@H](C)[C@H]1O)C2(C)C` (single isomer, unassigned), the IC50 in the series with A549 was 0.09 µM; in the series with MDA-MB-231, 1.99 µM; with KB, more than 10 µM; in series [1] it was more than 10 µM; in the series on MCF7, more than 10 µM; in series [2], 0.0623 µM. Moreover, the CC75 with MT4 is more than 5 µM. The selectivity ratio in series [3] was more than 50.

For the compound `CCCCCCCCCCCCCCCCCCCC(=O)O[C@]12C([C@@H]3C=C(CO)C[C@]4(O)C(=O)C(C)=C[C@H]4[C@@]3(O)[C@H](C)[C@H]1O)C2(C)C` (single isomer, unassigned), the IC50 is 0.08 µM in the series with A549; 0.21 µM with MDA-MB-231; more than 40 µM with KB; more than 40 µM in series [1]; more than 10 µM in the series with MCF7; 0.0135 µM in series [2]. Also, in the series with MT4, the CC75 is more than 5 µM. Further, the selectivity ratio in [3] is more than 350.

Consider `CCCC(=O)O[C@]12C([C@@H]3C=C(CO)C[C@]4(O)C(=O)C(C)=C[C@H]4[C@@]3(O)[C@H](C)[C@H]1OC(=O)/C=C/c1ccc(O)c(OC)c1)C2(C)C` (single isomer, unassigned), for which the IC50 in the series with A549 was more than 10 µM; in the series with MDA-MB-231 it was more than 10 µM; in the series on KB it was more than 10 µM; in series [1], more than 10 µM; with MCF7 it was more than 10 µM; in series [2] it was 0.0872 µM. Also, the CC75 in the series on MT4 was more than 5 µM. For the same compound, the selectivity ratio in [3] was more than 50.

With `CCCC(=O)O[C@]12C([C@@H]3C=C(CO)C[C@]4(O)C(=O)C(C)=C[C@H]4[C@@]3(O)[C@H](C)[C@H]1OC(=O)/C=C/c1ccccc1)C2(C)C` (single isomer, unassigned), the half-inhibitory concentration (IC50) in the series with A549 was more than 10 µM; with MDA-MB-231, more than 10 µM; with KB it was more than 10 µM; in series [1], more than 10 µM; with MCF7 it was more than 10 µM; in series [2], 0.0009 µM. Further, the IC50 in the series with MRC5 was determined as 8.71 µM. Also, the CC75 in the series on MT4 is more than 5 µM. Moreover, in series [3], the selectivity ratio was more than 5000.

As usually defined, the IC50 is the midpoint of a concentration-inhibition curve.
